According to US20110173718A1, “HERBICIDE TOLERANT PLANTS” (SYNGENTA CROP PROTECTION, INC., priority 2008, published 2011):
Like-named read-outs stand apart in the source and are kept apart here. Marks after values point to notes of the source that are not given here.

Experiments:
Arabidopsis HST = biological target: T1, Arabidopsis HST (Arabidopsis thaliana, UniProt Q1ACB3); test: HST total extraction (non TLC) assay, recombinant Arabidopsis HST from insect cells; type: biochemical
T1 construct: GST (factor Xa cleavage site) (N); made in house; host or cells: Sf9 insect cells (baculovirus, pAcG3X), membrane fraction
T1 sequence (Q1ACB3 70-386): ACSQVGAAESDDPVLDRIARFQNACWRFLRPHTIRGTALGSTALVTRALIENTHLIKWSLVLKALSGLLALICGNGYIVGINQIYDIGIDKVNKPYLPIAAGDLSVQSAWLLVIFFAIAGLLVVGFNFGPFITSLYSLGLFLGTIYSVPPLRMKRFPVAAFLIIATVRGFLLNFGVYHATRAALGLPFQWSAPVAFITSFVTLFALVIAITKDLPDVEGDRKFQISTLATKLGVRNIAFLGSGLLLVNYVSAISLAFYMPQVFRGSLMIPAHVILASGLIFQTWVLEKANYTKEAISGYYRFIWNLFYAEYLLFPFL

Chlamydomonas HST = biological target: T2, Chlamydomonas HST (Chlamydomonas reinhardtii, UniProt A1JHN0); test: HST assay (TLC, MFBQ formed), recombinant Chlamydomonas HST in E. coli membranes; type: biochemical; conditions: for inhibition at 25 ppm: read-out: Chlamydomonas. HST % I at 25 ppm
T2 construct: GST (N); made in house; host or cells: E. coli (BL21A1 / BL21DE3), membrane fraction
T2 sequence (A1JHN0 51-370): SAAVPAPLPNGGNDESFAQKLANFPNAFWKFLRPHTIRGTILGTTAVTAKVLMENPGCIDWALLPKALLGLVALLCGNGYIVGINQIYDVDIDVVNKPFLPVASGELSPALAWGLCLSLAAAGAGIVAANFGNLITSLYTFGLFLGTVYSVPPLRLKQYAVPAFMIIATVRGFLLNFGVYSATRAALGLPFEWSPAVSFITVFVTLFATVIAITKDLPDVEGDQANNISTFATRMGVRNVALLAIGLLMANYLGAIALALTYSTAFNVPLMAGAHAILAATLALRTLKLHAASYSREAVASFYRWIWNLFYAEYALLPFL
In short: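 Recombinant GST-fused Chlamydomonas HST in E. coli membranes was incubated with 200 μM farnesyl diphosphate and 100 μM 14C-homogentisate in 50 mM Tricine-NaOH pH 8.5, 20 mM MgCl2 for ~20 min at 28 °C, with compounds in DMSO. Oxidised plus reduced MFBQ was quantified by TLC phosphorimaging. Results are percent inhibition versus no-inhibitor control across doses.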

[1] = 25 ppm, TLC, estimated amount of MFBQ formed, relative to controls
[2] = TLC, estimated amount of MFBQ formed, relative to controls
[3] = 3 point dose curves only conducted at 50 μM HPP

Row | Structure (SMILES) | Estimated IC50 (ppm) (Arabidopsis HST) | inhibition at 25 ppm (Chlamydomonas HST; [1]) [%] | further results
1 | O=c1c(-c2c(F)ccc(Br)c2Cl)c(O)c2cccnc2n1CC(F)F [Compound 2.15] | 12 | – | –
2 | O=c1c(-c2c(Cl)ccc(Cl)c2Cl)c(O)c2nccnc2n1CC(F)F [Compound 2.14] | 9 | 85 | –
3 | O=c1c(-c2cc(C(F)(F)F)ccc2Cl)c(O)c2nccnc2n1CC(F)F [Compound 2.9] | 6 | 90 | –
4 | O=c1c(-c2c(F)ccc(F)c2Cl)c(O)c2nccnc2n1CC(F)F [Compound 2.3] | – | – | Chlamydomonas. HST % I at 10 ppm (Chlamydomonas HST; [2]): 40%; Chlamydomonas. HST % I at 100 ppm (Chlamydomonas HST; [2]): 85%; Estimated IC50 (ppm) (Arabidopsis HST; [3]): 19* ppm
5 | Oc1c(Cl)c(F)nc(F)c1Cl [Compound 1.1, haloxydine] | – | 80 | Chlamydomonas. HST % I at 10 ppm (Chlamydomonas HST; [2]): 70%; Chlamydomonas. HST % I at 100 ppm (Chlamydomonas HST; [2]): 95%; inhibition of the HST enzyme reaction (MFBQ and other products) (Chlamydomonas HST; 500 ppm, stated for the HST enzyme preparations assayed): completely inhibits
6 | O=c1c(-c2c(F)ccc(Br)c2Cl)c(O)c2nccnc2n1CC(F)F [Compound 2.8] | 12 | 85 | –
7 | O=c1c(-c2c(F)ccc(F)c2Cl)c(O)c2cccnc2n1CC(F)F [Compound 2.13] | – | – | Chlamydomonas. HST % I at 25 ppm (Chlamydomonas HST; [1]): 60%; Estimated IC50 (ppm) (Arabidopsis HST; [3]): 54* ppm
